The numbers were not newly measured in patent US20250288613A1, “COMPOSITIONS AND METHODS TARGETING SAT1 FOR ENHANCING ANTI-TUMOR IMMUNITY DURING TUMOR PROGRESSION” (THE BRIGHAM AND WOMEN’S HOSPITAL, INC., priority 2022, published 2025), which cites them from elsewhere.

As a reminder, the Ki is a dissociation constant, usually derived from enzyme kinetics or from competition with a known ligand.

The series deals with human spermidine/spermine acetyltransferase (SSAT) (Homo sapiens, UniProt P21673). As to conditions: competitive inhibition; spermidine as substrate.
human spermidine/spermine acetyltransferase (SSAT), sequence (P21673 whole entry): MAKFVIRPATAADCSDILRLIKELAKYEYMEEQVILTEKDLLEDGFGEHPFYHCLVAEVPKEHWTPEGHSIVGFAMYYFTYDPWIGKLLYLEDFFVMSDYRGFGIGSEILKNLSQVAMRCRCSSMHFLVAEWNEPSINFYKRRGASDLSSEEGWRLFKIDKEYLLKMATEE

On to `N=C(N)c1ccc(OCCCCCOc2ccc(C(=N)N)cc2)cc1` [Pentamidine], for which the Ki is 2400 nM.

As to `N=C(N)c1ccc(/N=N/Nc2ccc(C(=N)N)cc2)cc1` [berenil, 4,4′-(1-Triazene-1,3-diyl)bis(benzenecarboximidamide)], the inhibition constant Ki was 2000 nM.
